Results taken from patent US9125824B1 (InnoVitamin Organics, LLC, priority 2010, dated 2015).

Experiment: storage stability of trans-resveratrol under controlled temperature and humidity
Format: physicochemical
Conditions: stored at 10.0° C. (50 degrees F.) to approximately 30° C. (86 degrees F.), humidity less than 35 percent
Procedure: (50 degrees F.) to approximately 30° C.
Twenty five (25) kilograms of fine powder consisting of pomace, vines and leaves is stored in a cool, dark, dry location for shipping to the dietary supplement manufacturing facility. The temperature range of the storage area is in a range of between approximately 10.0° C. (50 degrees F.) to approximately 30° C. (86 degrees F.) and the dry location has a humidity level of less than 35 percent water vapor in the air.

- stability during storage and processing: remain stable
- stability during storage and processing (listed as organic trans-resveratrol): remains a stable compound
SMILES: Oc1ccc(/C=C/c2cc(O)cc(O)c2)cc1 [trans-resveratrol]
